Where a name gives a salt, the structure may show the parent alone.
What was measured:
[1] = source PR (EU Plastics Regulation No. 10/2011) or SO (Swiss Ordinance); EU Cube model; cited from earlier work
[2] = Worst-case calculation, Application 1 yoghurt pot lid exposure scenario; details: 100% migration, 2.0 g/m^2 dry film
[3] = Worst-case calculation (100% migration), standard EU Cube exposure model; details: 100% migration; for Worst-case calculation as a percentage of SML (or restriction), EU Cube: 2.0 g/m^2 dry film; for Worst Case Calculation of migration in EU Cube model (as a percentage of SML): dry coat weight 2.0 g/m^2
[4] = Worst-case calculation, Application 2 cheese packaging wrap exposure scenario; details: 100% migration, 2.0 g/m^2 dry film

CCCCOC(=O)CC(O)(CC(=O)OCCCC)C(=O)OCCCC [0000077-94-1, Tributyl citrate]
SML or Restriction (mg substance/kg food) [1]: 0.05 mg substance/kg food | Worst-case calculation as a percentage of SML (or restriction), Application 1 ([2]; product SBDEV976): 21.7 percentage of SML (or restriction) | Worst-case calculation as a percentage of SML (or restriction), Application 1 ([2]; product SBDEV977): 20.9 percentage of SML (or restriction) | Worst-case calculation as a percentage of SML (or restriction), Application 1 ([2]; product SBDEV979): 20.8 percentage of SML (or restriction) | Worst-case calculation as a percentage of SML (or restriction), Application 1 ([2]; product SBDEV980): 21.0 percentage of SML (or restriction) | Worst-case calculation as a percentage of SML (or restriction), Application 1 ([2]; product SBDEV1284): 20.73 percentage of SML (or restriction) | Worst-case calculation as a percentage of SML (or restriction), Application 1 ([2]; product SBDEV1285): 20.73 percentage of SML (or restriction) | Worst-case calculation as a percentage of SML (or restriction), Application 1 ([2]; product SBDEV1286): 20.73 percentage of SML (or restriction) | Worst-case calculation as a percentage of SML (or restriction), Application 1 ([2]; product SBDEV1287): 20.73 percentage of SML (or restriction) | Worst-case calculation as a percentage of SML (or restriction), EU Cube ([3]; product SBDEV976): 55.2 percentage of SML (or restriction) | Worst-case calculation as a percentage of SML (or restriction), EU Cube ([3]; product SBDEV977): 53.2 percentage of SML (or restriction) | Worst-case calculation as a percentage of SML (or restriction), EU Cube ([3]; product SBDEV979): 52.8 percentage of SML (or restriction) | Worst-case calculation as a percentage of SML (or restriction), EU Cube ([3]; product SBDEV980): 53.4 percentage of SML (or restriction) | Worst-case calculation as a percentage of SML (or restriction), EU Cube ([3]; product SBDEV1284): 52.8 percentage of SML (or restriction) | Worst-case calculation as a percentage of SML (or restriction), EU Cube ([3]; product SBDEV1285): 52.8 percentage of SML (or restriction) | Worst-case calculation as a percentage of SML (or restriction), EU Cube ([3]; product SBDEV1286): 52.8 percentage of SML (or restriction) | Worst-case calculation as a percentage of SML (or restriction), EU Cube ([3]; product SBDEV1287): 52.8 percentage of SML (or restriction) | Worst Case Calculation of migration in EU Cube model (as a percentage of SML) ([3]; substance in ink SBDEV976 (Ex. 4C Cyan)): 55.2 percentage of SML | Worst Case Calculation of migration in EU Cube model (as a percentage of SML) ([3]; substance in ink SBDEV977 (Ex. 4A Yellow)): 53.2 percentage of SML | Worst Case Calculation of migration in EU Cube model (as a percentage of SML) ([3]; substance in ink SBDEV979 (Ex. 4D Black)): 52.8 percentage of SML | Worst Case Calculation of migration in EU Cube model (as a percentage of SML) ([3]; substance in ink SBDEV980 (Ex. 4B Red)): 53.4 percentage of SML | Worst-case calculation as a percentage of SML (or restriction), Application 2 ([4]; product SBDEV976): 79.6 percentage of SML (or restriction) | Worst-case calculation as a percentage of SML (or restriction), Application 2 ([4]; product SBDEV977): 76.7 percentage of SML (or restriction) | Worst-case calculation as a percentage of SML (or restriction), Application 2 ([4]; product SBDEV979): 76.0 percentage of SML (or restriction) | Worst-case calculation as a percentage of SML (or restriction), Application 2 ([4]; product SBDEV980): 76.9 percentage of SML (or restriction) | Worst-case calculation as a percentage of SML (or restriction), Application 2 ([4]; product SBDEV1284): 76.01 percentage of SML (or restriction) | Worst-case calculation as a percentage of SML (or restriction), Application 2 ([4]; product SBDEV1285): 76.01 percentage of SML (or restriction) | Worst-case calculation as a percentage of SML (or restriction), Application 2 ([4]; product SBDEV1286): 76.01 percentage of SML (or restriction) | Worst-case calculation as a percentage of SML (or restriction), Application 2 ([4]; product SBDEV1287): 76.01 percentage of SML (or restriction)

Reference: patent US11927585B2, “Solvent-based inks and coatings for food contact applications” (SUN CHEMICAL CORPORATION, priority 2020, dated 2024)
